# In patent US8580793B2, “Use of kinase inhibitor for the treatment of thymoma” (Nerviano Medical Services S.r.l., priority 2009, dated 2013):
# System: thymic carcinoma
# Experiment: Phase I clinical trial, objective tumor response in thymic carcinoma patients (RECIST)
# Assay type: in vivo, human
# Settings: 150 mg daily; for decrease in the sum of target lesions compared to baseline: patient; for tumor response as per RECIST criteria: thymic carcinoma patient, 4 days on/3 days off for 3 weeks in 4-week cycle
# Source text: An objective tumor response was obtained in a patient, first diagnosed with thymic carcinoma in May 2002 and having had their third progression of disease with metastases to lung in July 2007, entered the phase I clinical trial in September 2007. […] The patient, prior to be treated in the clinical trial, received other treatments for their thymic carcinoma, as follows: from January 2005 to June 2005: Adriamycin®, Cytoxan®, Cisplatin; from February 2006 to May 2006: Ifosfamide; from October 2006 to June 2007: Taxol®, Carboplatin; from June 2007 to July 2007: Adriamycin®, Cytoxan®, Vincristine. The patient had also surgery in May 2002 and radiotherapy in July 2002 and July 2006.
# Another objective tumor response was obtained in a patient, first diagnosed with thymic carcinoma in May 2006, becoming metastatic to lung, bones and peritoneum in October 2007. The patient started treatment in the phase I clinical trial in December 2008. […] The patient, prior to be treated in the clinical trial, received one line of chemotherapy (cisplatin/gemcitabine) from November 2007 to March 2008; they had surgery in May 2006 and radiotherapy in September 2006.
smiles,measurement,setting,value
"CNC(=O)c1nn(C)c2c1C(C)(C)Cc1cnc(Nc3ccc(N4CCN(C)CC4)cc3)nc1-2 [compound of formula (I), 8-[4-(4-methyl-piperazin-1-yl)-phenylamino]-1,4,4-trimethyl-4,5-dihydro-1H-pyrazolo[4,3-h]quinazoline-3-carboxylic acid methylamide]",decrease in the sum of target lesions compared to baseline,PR confirmed one month later,40%
same,decrease in the sum of target lesions compared to baseline,after 6 cycles,30%
same,decrease in the sum of target lesions compared to baseline,after 10 cycles,31.2%
same,decrease in the sum of target lesions compared to baseline,documented until cycle 13,37.6%
same,tumor response as per RECIST criteria,after 6 cycles,partial tumor response (PR)
same,tumor response as per RECIST criteria,after 10 cycles,partial tumor response (PR)
